For series [1] the following is noted: logarithmic dissociation constant for the Gd-ligand complexes (GdL); cited from earlier work.
For series [2] the following is noted: proton resonance frequency 20 MHz, available temperature closest to 37° C.; cited from earlier work.
Series [3] is described as follows: Measurement of relaxation time / relaxivity, Bruker minispec relaxometer. Conditions: relaxivity per Gd ion, 20 MHz, 37° C., ultrapure water. It is filed as physicochemical. The method, then:
The relaxation times relating to the particles obtained were measured on a Bruker minispec NMS 120 relaxometer (Bruker, Rheinstetten, Germany) operating at a proton resonance frequency of ω/2π=20 MHz and a temperature of 37° C. In order to avoid any confusion between angular frequency ω and the frequency v, here, all of the frequencies given in Hz correspond to ω/2π=v. The spectrometer was calibrated using standard water/oil mixtures with known component ratios, in accordance with the manufacturer's instructions. The pre-diluted samples were further diluted directly in 10 mm NMR (nuclear magnetic resonance) tubes using a series containing 10×1 mL samples. All of the dilutions were made using ultrapure water. The tubes were sealed and placed in a water bath at 37° C. for at least 10 minutes before measurement, The relaxation times T1 were determined by using the inversion-recovery pulse sequence with a repetition time TR=5 s. […] In general, 100 echoes with an echo time TE between 0.5 and 2 ms depending on the concentration of the sample were recorded. […]
The relaxivities per particle were determined by firstly calculating the volume of a particle. To this end, the nanoparticles were assumed to be homogeneous in dimension and spherical with a diameter equal to the number average diameter determined by DLS (dynamic light scattering). […]

For the compound `CNC(=O)CN(CCN(CCN(CC(=O)[O-])CC(=O)NC)CC(=O)[O-])CC(=O)[O-].[Gd+3]` [Omniscan], in series [1], the pKGdL was 16.9. The r1 in series [2] was 3.96 mM⁻¹ s⁻¹. `[Cl][Gd]([Cl])[Cl]` [GdCl3]: the “r1^ion” value in series [3] stood at 10.4 mM⁻¹ s⁻¹. `CCOc1ccc(CC(CN(CCN(CC(=O)[O-])CC(=O)[O-])CC(=O)[O-])N(CC(=O)[O-])CC(=O)[O-])cc1.[Gd+3].[Na+].[Na+]` (stereo not drawn) [Eovist]: the r1 in series [2] is 5.4 mM⁻¹ s⁻¹.

Turning to `O=C([O-])CN(CCN(CC(=O)[O-])CC(COP(=O)([O-])OC1CCC(c2ccccc2)(c2ccccc2)CC1)N(CC(=O)[O-])CC(=O)[O-])CC(=O)[O-].[Gd+3].[Na+].[Na+].[Na+]` (stereo not drawn) [Ablavar], the pKGdL in series [1] is listed as 6.6. For `COCCNC(=O)CN(CCN(CCN(CC(=O)[O-])CC(=O)NCCOC)CC(=O)[O-])CC(=O)[O-].[Gd+3]` [OptiMark], in series [1], the pKGdL is on record as 16.8. Moreover, the r1 in series [2] was 4.7 mM⁻¹ s⁻¹.

Consider `O=C([O-])CN1CCN(CC(=O)[O-])CCN([C@H](CO)[C@H](O)CO)CCN(CC(=O)[O-])CC1.[Gd+3]` (racemic) [Gadovist], for which the pKGdL in series [1] is 21.1. Also, the r1 in series [2] was 4.8 mM⁻¹ s⁻¹. Take `CNC[C@H](O)[C@@H](O)[C@H](O)[C@H](O)CO.CNC[C@H](O)[C@@H](O)[C@H](O)[C@H](O)CO.O=C([O-])CN(CCN(CC(=O)[O-])CC(=O)O)CCN(CC(=O)O)C(COCc1ccccc1)C(=O)[O-].[Gd+3]` (stereo not drawn) [MultiHance]: in series [1], the pKGdL is reported as 22.6. Also, the r1 in series [2] is 4.39 mM⁻¹ s⁻¹. With `CC(O)CN1CCN(CC(=O)[O-])CCN(CC(=O)[O-])CCN(CC(=O)[O-])CC1.[Gd+3]` (stereo not drawn) [Prohance], the pKGdL in series [1] is reported as 23.8. Besides, in series [2], the r1 is 3.7 mM⁻¹ s⁻¹.

`CNC[C@H](O)[C@@H](O)[C@H](O)[C@H](O)CO.CNC[C@H](O)[C@@H](O)[C@H](O)[C@H](O)CO.O=C([O-])CN(CCN(CC(=O)[O-])CC(=O)O)CCN(CC(=O)[O-])CC(=O)O.[Gd+3]` [Magnevist]: the pKGdL in series [1] was 22.5. In addition, in series [2], the r1 is 3.8 mM⁻¹ s⁻¹.

The values are drawn from patent US20180161461A1, “Rare Earth Oxide Particles and Use Thereof in Particular In Imaging” (Ecole Polytechnique, priority 2012, published 2018).
